Test results from patent publication US20240246964A1 (Arbutus Biopharma Corporation, priority 2021, published 2024).

biological target: human PD-L1 (Homo sapiens (Human), UniProt Q9NZQ7); experiment: T cell activation luciferase reporter cell culture system (T Cell Activation Assay); type: cell-based; conditions: luciferase reporter assay; PD-L1 aAPC/CHO-K1 cells with PD-1 effector Jurkat T cells
Sequence (Q9NZQ7 19-290): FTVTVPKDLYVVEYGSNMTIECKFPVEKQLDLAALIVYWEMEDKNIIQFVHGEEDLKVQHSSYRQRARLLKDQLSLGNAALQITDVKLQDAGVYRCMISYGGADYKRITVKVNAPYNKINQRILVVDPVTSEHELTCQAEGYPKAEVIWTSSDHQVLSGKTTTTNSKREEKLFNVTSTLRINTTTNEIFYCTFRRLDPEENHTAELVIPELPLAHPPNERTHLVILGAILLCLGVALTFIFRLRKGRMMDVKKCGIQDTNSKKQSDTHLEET

EC50 [nM] | SMILES
20.7 | COc1cc(-c2nccc(-c3cccc(-c4ccc(CN5CC6(C5)CN(C(C)=O)C6)c(OC)n4)c3Cl)c2Cl)ccc1CNC1CCOCC1 [Example 511, 1-(6-((6-(2-Chloro-3-(3-chloro-2-(3-methoxy-4-(((tetrahydro-2H-pyran-4-yl)amino)methyl)phenyl)pyridin-4-yl)phenyl)-2-methoxypyridin-3-yl)methyl)-2,6-diazaspiro[3.3]heptan-2-yl)ethan-1-one]
9.1 | COc1cc(-c2nccc(-c3cccc(NC(=O)c4ccc(CNCCO)cn4)c3Cl)c2Cl)ccc1CN1CC2(CNC(=O)C2)C1 [Example 754, N-(2-Chloro-3-(3-chloro-2-(3-methoxy-4-((7-oxo-2,6-diazaspiro[3.4]octan-2-yl)methyl)phenyl)pyridin-4-yl)phenyl)-5-(((2-hydroxyethyl)amino)methyl)picolinamide]
25 | COc1cc(-c2nccc(-c3cccc(-c4ccc(CNC5CCOCC5)c(OC)n4)c3Cl)c2Cl)ccc1CN1CC2(CNC(=O)C2)C1 [Example 506, 2-(4-(3-Chloro-4-(2-chloro-3-(6-methoxy-5-(((tetrahydro-2H-pyran-4-yl)amino)methyl)pyridin-2-yl)phenyl)pyridin-2-yl)-2-methoxybenzyl)-2,6-diazaspiro[3.4]octan-7-one]
67.6 | COCC(=O)N1CC2(CN(Cc3ccc(-c4cccc(-c5ccnc(-c6ccc(CN7CC8(C7)CN(C(C)=O)C8)c(OC)c6)c5Cl)c4Cl)nc3OC)C2)C1 [Example 691, 1-(6-((6-(3-(2-(4-((6-Acetyl-2,6-diazaspiro[3.3]heptan-2-yl)methyl)-3-methoxyphenyl)-3-chloropyridin-4-yl)-2-chlorophenyl)-2-methoxypyridin-3-yl)methyl)-2,6-diazaspiro[3.3]heptan-2-yl)-2-methoxyethan-1-one]
41.3 | COc1cc(-c2nccc(-c3cccc(-c4ccc(CN5CC6(CCOCC6)C5)c(OC)n4)c3Cl)c2Cl)ccc1CNC1CCOCC1 [Example 531, N-(4-(4-(3-(5-((7-oxa-2-azaspiro[3.5]nonan-2-yl)methyl)-6-methoxypyridin-2-yl)-2-chlorophenyl)-3-chloropyridin-2-yl)-2-methoxybenzyl)tetrahydro-2H-pyran-4-amine]
168 | COc1nc(-c2cccc(-c3ccnc(-c4ccc5c(c4)CCC[C@H]5NC[C@@H]4CCC(=O)N4)c3Cl)c2Cl)ccc1CNC[C@H](C)O [Example 256, (S)-5-((((R)-6-(3-Chloro-4-(2-chloro-3-(5-((((S)-2-hydroxypropyl)amino)methyl)-6-methoxypyridin-2-yl)phenyl)pyridin-2-yl)-1,2,3,4-tetrahydronaphthalen-1-yl)amino)methyl)pyrrolidin-2-one]
≥ 10000 | COc1cc(-c2nccc(-c3cccc(NC(=O)c4ccc(CN5CC6(C5)CN(C(C)=O)C6)cn4)c3C)c2Cl)ccc1CN1CC2(C1)CN(C(C)=O)C2 [Example 649, 5-((6-Acetyl-2,6-diazaspiro[3.3]heptan-2-yl)methyl)-N-(3-(2-(4-((6-acetyl-2,6-diazaspiro[3.3]heptan-2-yl)methyl)-3-methoxyphenyl)-3-chloropyridin-4-yl)-2-methylphenyl)picolinamide]
62.2 | COc1cc(-c2nccc(-c3cccc(-c4ccc(CN5CC6(CCN(CCO)C6)C5)c(OC)n4)c3Cl)c2Cl)ccc1CN1CC2(CCN(CCO)C2)C1 [Example 670, 2-(2-((6-(2-Chloro-3-(3-chloro-2-(4-((6-(2-hydroxyethyl)-2,6-diazaspiro [3.4]octan-2-yl)methyl)-3-methoxyphenyl)pyridin-4-yl)phenyl)-2-methoxypyridin-3-yl)methyl)-2,6-diazaspiro[3.4]octan-6-yl)ethan-1-ol]
32.8 | COc1cc(-c2nccc(-c3cccc(-c4ccc(CNC5CCN(C(C)=O)CC5)c(OC)n4)c3Cl)c2Cl)ccc1CNCC1(O)CC1 [Example 512, 1-(4-(((6-(2-Chloro-3-(3-chloro-2-(4-((((1-hydroxycyclopropyl)methyl)amino)methyl)-3-methoxyphenyl)pyridin-4-yl)phenyl)-2-methoxypyridin-3-yl)methyl)amino)piperidin-1-yl)ethan-1-one]
38.5 | COc1cc(-c2nccc(-c3cccc(-c4ccc(CN5CC[C@H](C(=O)O)C5)c(OC)n4)c3Cl)c2Cl)ccc1CNC1CCN(C(C)=O)CC1 [Example 388, (S)-1-((6-(3-(2-(4-(((1-acetylpiperidin-4-yl)amino)methyl)-3-methoxyphenyl)-3-chloropyridin-4-yl)-2-chlorophenyl)-2-methoxypyridin-3-yl)methyl)pyrrolidine-3-carboxylic acid]
37.3 | COc1cc(-c2nccc(-c3cccc(-c4ccc5c(CNC[C@@H]6CCO6)cn(C)c5n4)c3Cl)c2Cl)ccc1CNC[C@@H]1CCC(=O)N1 [Cmpd 58, (S)-5-(((4-(3-chloro-4-(2-chloro-3-(1-methyl-3-(((((S)-oxetan-2-yl)methyl)amino)methyl)-1H-pyrrolo[2,3-b]pyridin-6-yl)phenyl)pyridin-2-yl)-2-methoxybenzyl)amino)methyl)pyrrolidin-2-one]
66.9 | COc1nc(-c2cccc(-c3ccnc(-c4ccc(CNC5CCN(C)C(=O)C5)c(OC(F)F)c4)c3Cl)c2Cl)ccc1CNC1CCN(C)C(=O)C1 (racemic) [Example 619, 4-(((6-(2-Chloro-3-(3-chloro-2-(3-(difluoromethoxy)-4-(((1-methyl-2-oxopiperidin-4-yl)amino)methyl)phenyl)pyridin-4-yl)phenyl)-2-methoxypyridin-3-yl)methyl)amino)-1-methylpiperidin-2-one]
≥ 10000 | COc1cc(-c2nccc(-c3cccc(-c4ccc(CN(C)C5CCN(C(C)=O)CC5)c(OC)n4)c3Cl)c2Cl)ccc1CN(C)C1CCN(C(C)=O)CC1 [Cmpd 140, 1-(4-(((6-(3-(2-(4-(((1-acetylpiperidin-4-yl)(methyl)amino)methyl)-3-methoxyphenyl)-3-chloropyridin-4-yl)-2-chlorophenyl)-2-methoxypyridin-3-yl)methyl)(methyl)amino)piperidin-1-yl)ethan-1-one]
266 | COc1cc(-c2nccc(-c3cccc(NC(=O)c4ccc(CNCCCF)cn4)c3Cl)c2Cl)ccc1CNCCCF [Example 702, N-(2-Chloro-3-(3-chloro-2-(4-(((3-fluoropropyl)amino)methyl)-3-methoxyphenyl)pyridin-4-yl)phenyl)-5-(((3-fluoropropyl)amino)methyl)picolinamide]
≥ 10000 | CNCc1ccc(-c2nccc(-c3cccc4c3CCC[C@@H]4Nc3nc(OC)c(CNC)cc3C(F)(F)F)c2Cl)cc1OC [Example 741, (S)—N-(5-(3-Chloro-2-(3-methoxy-4-((methylamino)methyl)phenyl)pyridin-4-yl)-1,2,3,4-tetrahydronaphthalen-1-yl)-6-methoxy-5-((methylamino)methyl)-3-(trifluoromethyl)pyridin-2-amine]
140 | COc1cc(-c2nccc(-c3cccc(-c4ccc(CNC[C@@H]5CCC(=O)N5)c(OC)n4)c3Cl)c2Cl)ccc1CNCC(=O)OC(C)C [Cmpd 108, isopropyl (S)-(4-(3-chloro-4-(2-chloro-3-(6-methoxy-5-((((5-oxopyrrolidin-2-yl)methyl)amino)methyl)pyridin-2-yl)phenyl)pyridin-2-yl)-2-methoxybenzyl)glycinate]
11.8 | COc1cc(-c2nccc(-c3cccc(-c4ccc(CNC5CCN(C)C(=O)C5)c(OC)n4)c3Cl)c2Cl)ccc1CNC1CCN(C)C(=O)C1 (centres unmarked) [Example 418, 4-(((6-(2-Chloro-3-(3-chloro-2-(3-methoxy-4-(((1-methyl-2-oxopiperidin-4-yl)amino)methyl)phenyl)pyridin-4-yl)phenyl)-2-methoxypyridin-3-yl)methyl)amino)-1-methylpiperidin-2-one]
9.1 | COc1cc(-c2nccc(-c3cccc(-c4ccc(CN5CCC(NC(C)=O)CC5)c(OC)n4)c3Cl)c2Cl)ccc1CNC[C@@H]1CCC(=O)N1 [Example 357, (S)—N-(1-((6-(2-Chloro-3-(3-chloro-2-(3-methoxy-4-((((5-oxopyrrolidin-2-yl)methyl)amino)methyl)phenyl)pyridin-4-yl)phenyl)-2-methoxypyridin-3-yl)methyl)piperidin-4-yl)acetamide]
261 | CNCc1ccc(-c2nccc(-c3cccc(-c4ccc(CNC)c(OC)n4)c3C)c2C)cc1OC [Example 362, 1-(2-Methoxy-4-(4-(3-(6-methoxy-5-((methylamino)methyl)pyridin-2-yl)-2-methylphenyl)-3-methylpyridin-2-yl)phenyl)-N-methylmethanamine]
172 | COc1nc(-c2cccc(-c3ccnc(-c4ccc5c(c4)N(C)CCNC5)c3Cl)c2Cl)ccc1CNCC(C)NC(C)=O (centres unmarked) [Cmpd 5, N-(1-(((6-(2-chloro-3-(3-chloro-2-(1-methyl-2,3,4,5-tetrahydro-1H-benzo[e][1,4]diazepin-8-yl)pyridin-4-yl)phenyl)-2-methoxypyridin-3-yl)methyl)amino)propan-2-yl)acetamide]
12.9 | COc1cc(-c2nccc(-c3cccc(-c4ccc(CNC5CCN(C(C)=O)CC5)c(OC)n4)c3Cl)c2Cl)ccc1CNC1CCN(C(C)=O)CC1 [Cmpd 139, 1-(4-(((6-(3-(2-(4-(((1-acetylpiperidin-4-yl)amino)methyl)-3-methoxyphenyl)-3-chloropyridin-4-yl)-2-chlorophenyl)-2-methoxypyridin-3-yl)methyl)amino)piperidin-1-yl)ethan-1-one]
19.5 | COc1cc(-c2nccc(-c3cccc(-c4ccc(CNC5CCN(C(=O)N(C)C)CC5)c(OC)n4)c3Cl)c2Cl)ccc1CNC1CCN(C(=O)N(C)C)CC1 [Example 419, 4-(((6-(2-Chloro-3-(3-chloro-2-(4-(((1-(dimethylcarbamoyl)piperidin-4-yl)amino)methyl)-3-methoxyphenyl)pyridin-4-yl)phenyl)-2-methoxypyridin-3-yl)methyl)amino)-N,N-dimethylpiperidine-1-carboxamide]

SMILES | EC50 [nM]
COc1cc(-c2nccc(-c3cccc(-c4ccc(CN[C@H]5CC[C@@H](O)CC5)c(OC)n4)c3Cl)c2Cl)ccc1CN1CC2(CNC(=O)C2)C1 [Example 516, 2-(4-(3-Chloro-4-(2-chloro-3-(5-((((1s,4s)-4-hydroxycyclohexyl)amino)-methyl)-6-methoxypyridin-2-yl)phenyl)pyridin-2-yl)-2-methoxybenzyl)-2,6-diazaspiro[3.4]octan-7-one] | 50.4
